We go through 1 compound from patent publication US8207346B2, “Methods of synthesizing anatabine” (Rock Creek Pharmaceuticals, Inc., priority 2010, dated 2012).

For one data set, the system named is monoamine oxidase (MAO). The settings on record: known from Williams et al. U.S. Pat. No. 6,929,811; cited from earlier work.
Data set [1] can be described thus: Stability analysis of anatabine base with and without BHT as a preservative. Format: physicochemical. How it is done: See, for example, Tables 3 and 4 in Examples 4 and 5, respectively. Purity of the anatabine may be retained for extended periods of time. […] Further, anatabine remains stable when stored at a variety of temperatures. For example, the anatabine retains the indicated purity when stored at −20° C. to −10° C., −20° C. to 0° C., −10° C. to 0° C., 0° C. to 4° C., 2° C. to 8° C., 5° C. to 10° C., 10° C. to 15° C., 15° C. to 25° C., or 25° C. to 28° C. Stability is determined by any suitable art-recognized method. For example, anatabine stability may be monitored by high performance liquid chromatography (HPLC), liquid chromatography-mass spectroscopy (LC-MS), or nuclear magnetic resonance (NMR).
Anatabine base stability was analyzed with and without BHT (3,5-di-tert-butyl-4-hydroxytoluene). The initial purity of BHT-free anatabine base was 94.95%. The initial purity of anatabine base with BHT was 94.87%.

For the compound `C1=CCC(c2cccnc2)NC1` (stereo not shown) [anatabine base without BHT, Anatabine], the “Inhibition of monoamine oxidase (MAO)” value in the data set on monoamine oxidase (MAO) was “inhibit monoamine oxidase (MAO)”. Also, the “Purity (%)” value in data set [1] (day 1, storage temperature 2-8° C.) is reported as 94.44%; in data set [1] (day 1, storage temperature 25-28° C.) it was 89.63%; in data set [1] (day 1, storage temperature −20° C.) it was 93.90%; in data set [1] (day 2, storage temperature 2-8° C.), 94.05%; in data set [1] (day 2, storage temperature 25-28° C.), 87.59%; in data set [1] (day 2, storage temperature −20° C.) it was 94.62%. Further, the “Purity (%)” value in data set [1] (day 3, storage temperature 2-8° C.) is 91.65%; in data set [1] (day 3, storage temperature 25-28° C.), 80.74%; in data set [1] (day 3, storage temperature −20° C.) it was 93.87%; in data set [1] (day 12, storage temperature 2-8° C.), 90.12%; in data set [1] (day 12, storage temperature 25-28° C.), 79.59%; in data set [1] (day 12, storage temperature −20° C.), 94.01%.
